Reference: patent EP1891940B1, “Intrasynovial formulations of stanozolol” (Acme Drugs S.r.l., priority 2006, dated 2008)

Assays:
[1] = Solubility in water; format: physicochemical; settings: crystalline substance
Description: The formulations according to the invention of stanozolol in an aqueous carrier are therefore aqueous suspensions, and it is necessary to prevent the suspended crystals of the drug from causing mechanical lesions such as abrasions and erosions despite the pressures and friction generated by the movement of the joint on the surfaces of the cartilage and synovial membrane.

[2] = Persistence of stanozolol in the joint / synovial fluid after intrasynovial injection; format: in vivo, horses and humans
Description: A single intrasynovial injection of said formulations allows the stanozolol to be brought up to and maintained at pharmacologically active concentrations in the joint for 6-7 days, a period which is long enough to produce evident clinical benefits and fully compatible with long-term treatments.
Two examples of formulation of a typical preparation containing stanozolol administrable by the intrasynovial route to horses and humans, which remains in the synovial fluid for 5-7 days, one set out below: • a) Active ingredient: micronised stanozolol (having a prevalent population of particles with a diameter of less than 20 µm) 5 mg; Water for injectables q.s. to 1 ml. • b) Active ingredient: Micronised Stanozolol: (having a prevalent population of particles with diameter of less than 20 µm) 5 mg/ml

C[C@]12Cc3c[nH]nc3C[C@@H]1CC[C@@H]1[C@@H]2CC[C@@]2(C)[C@H]1CC[C@]2(C)O [stanozolol]
solubility in water [1]: insoluble in water | maintained at pharmacologically active concentrations in the joint ([2]; single intrasynovial injection of the micronised aqueous suspension formulations): 6-7 days | remains in the synovial fluid ([2]; typical preparation with micronised stanozolol 5 mg/ml, intrasynovial route, horses and humans): 5 to 7 days
